Experimental data published in publication PMC9090415, “Discovery of small molecule inhibitors of Plasmodium falciparum apicoplast DNA polymerase” (Journal of Enzyme Inhibition and Medicinal Chemistry, 2022).

Biological target: P. falciparum apicoplast DNA polymerase (Pf-apPOL) (Plasmodium falciparum, UniProt Q8ILY1)
Experiment: Fluorescence-based high-throughput DNA polymerase assay (molecular beacon), primary screen and dose-response
Type: biochemical
Details: for DNA Pol: unit not given, 90 min, 10 µM
Method: The HT assay employs a molecular beacon, a stem-loop DNA template with a Cy3 dye and the Black Hole Quencher on the 3′ and 5′ ends of the DNA, respectively. Pf-apPOL concentration is based on a calculated absorptivity of ε280 = 56750 M^−1 cm^−1. Reactions were carried out at 25 °C, using Corning 3575 […] (well-volume, 20 µL). Assays testing for compound inhibition composed of reaction buffer (pH 7.9 in 50 mM potassium acetate, 20 mM Tris-acetate and 10 mM magnesium acetate), Pf-apPOL (20 nM), DNA substrate (20 nM), dNTPs (6 µM), and compound (10 µM in DMSO). The DNA and nucleotide substrates (dNTPs) were at concentrations of 20 nM and 6 µM, respectively, in the assay. Pf-apPOL was incubated in the reaction buffer with dNTPs and the compound of interest (10 µM, in the assay) at 25 °C for 10 min. The DNA substrate was then added and the reaction was allowed to proceed for 90 min at 25 °C.
Each assay plate contained 16 negative controls (no Pf-apPOL, DMSO present) and 16 positive controls (Pf-apPOL present, no DMSO). The fluorescence of each well was determined using a BioTek Synergy Neo fluorescence plate reader using excitation and emission wavelengths of 555 and 570 nm, respectively.
In the above, Min is the average of fluorescence emission of the negative controls (substrate only), Max the average fluorescence emission from the positive controls (enzyme + substrate), and Test the emission from the assays in the presence of compounds (enzyme + compound + substrates). […] […] The IC50 of each compound was determined using Equation (2): (2) IC50= Vmax/(1+ (I/IC50)^n)
In the above, n measures cooperativity, with n > 1 indicating synergistic binding of more than a single molecule of the compound.
To identify apPOL inhibitors we utilised our previously developed high-throughput DNA polymerase assay. The HT assay is based on a molecular beacon DNA template that forms a stem-loop with a Cy3 dye and the Black Hole Quencher on the 3′ and 5′ ends of the DNA, respectively. DNA polymerase activity extends an annealed primer through the stem region, displacing the fluorophore from the quencher, thereby increasing its fluorescence (Figure 1(A)). The assay accurately recapitulates the kinetic behaviour of apPOL, as measured through more conventional low-throughput gel-based assays. The Z′ factor for the assay described here was 0.9 across all plates (data not shown).
Figure 1. High-throughput screening. (A) The fluorescent-based DNA polymerase assay used to screen the compound libraries. The DNA template strand is a hairpin loop with a primer annealed to the loop. The 3’ end of the primer is 11 bases away from the 6 bp duplex. Strand displacement activity of the DNA polymerase separates the Cy3 dye from the Black hole quencher leading to an increase in fluorescent signal. (B) The high-throughput assay workflow. The DNA polymerase is incubated with […] compound for 10 min prior to addition of the hairpin substrate. The reaction is quenched at 3 different time points and the fluorescent signal is measured and % inhibition is determined using the provided equation.

[1] = DRC-2, 5', concentration 2.5 (unit not given)
[2] = DRC-2, 40', concentration 2.5 (unit not given)
[3] = primary screen value of the 186 hits
[4] = primary screen value, head "DNA Pol"

Chain of P. falciparum apicoplast DNA polymerase (Pf-apPOL) (Q8ILY1 entry or part of it): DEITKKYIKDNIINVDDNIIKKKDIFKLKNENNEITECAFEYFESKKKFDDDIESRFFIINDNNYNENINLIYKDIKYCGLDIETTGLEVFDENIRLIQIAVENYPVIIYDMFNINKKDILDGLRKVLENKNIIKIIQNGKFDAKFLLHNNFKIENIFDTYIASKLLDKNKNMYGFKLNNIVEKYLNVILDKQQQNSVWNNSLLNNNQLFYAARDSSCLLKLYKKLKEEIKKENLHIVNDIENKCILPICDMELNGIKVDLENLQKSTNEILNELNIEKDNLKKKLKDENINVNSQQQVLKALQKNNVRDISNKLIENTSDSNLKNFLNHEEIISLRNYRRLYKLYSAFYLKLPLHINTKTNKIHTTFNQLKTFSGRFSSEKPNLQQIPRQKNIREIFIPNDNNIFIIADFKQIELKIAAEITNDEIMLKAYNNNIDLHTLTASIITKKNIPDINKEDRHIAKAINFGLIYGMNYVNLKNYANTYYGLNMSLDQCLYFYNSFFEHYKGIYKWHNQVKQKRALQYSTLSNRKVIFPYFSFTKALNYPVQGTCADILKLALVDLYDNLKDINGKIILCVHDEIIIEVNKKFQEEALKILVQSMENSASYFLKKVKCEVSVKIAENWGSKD

NS(=O)(=O)c1ccc(NC(=O)c2ccc(N3C(=O)CCC3=O)cc2)cc1 [KU0025331]
% inhibition Apo pol 10' (DRC-1, concentration 2.5): 3.929% | % inhibition Apo pol 10' (DRC-1, concentration 5): 17.6449% | % inhibition Apo pol 10' (DRC-1, concentration 10): 35.7836% | % inhibition Apo pol 10' (DRC-1, concentration 20): 51.7902% | % inhibition Apo pol 10' (DRC-1, concentration 40): 82.955% | % inhibition Apo pol 10' (DRC-1, concentration 80): 86.1018% | % inhibition Apol 90' (DRC-1, 90', concentration 2.5): -2.372% | % inhibition Apol 90' (DRC-1, 90', concentration 5): 7.062% | % inhibition Apol 90' (DRC-1, 90', concentration 10): 19.6888% | % inhibition Apol 90' (DRC-1, 90', concentration 20): 33.4355% | % inhibition Apol 90' (DRC-1, 90', concentration 40): 69.7509% | % inhibition Apol 90' (DRC-1, 90', concentration 80): 83.6402% | % inhibition apPOL 180' (DRC-1, 180', concentration 2.5): -7.42% | % inhibition apPOL 180' (DRC-1, 180', concentration 5): -1.0806% | % inhibition apPOL 180' (DRC-1, 180', concentration 10): 6.657% | % inhibition apPOL 180' (DRC-1, 180', concentration 20): 15.4098% | % inhibition apPOL 180' (DRC-1, 180', concentration 40): 52.8887% | % inhibition apPOL 180' (DRC-1, 180', concentration 80): 79.9389% | % inhibition Apo pol 5' [1]: 8% | % inhibition Apol 40' [2]: 8% | % inhibition Apol 40' (DRC-2, 40', concentration 40 (unit not given)): 67% | % inhibition ApPOL 90' (DRC-2, 90', concentration 80 (unit not given)): 67% | % inhibition Apo pol 5' (DRC-2, 5', concentration 2.5): 8% | % inhibition Apo pol 5' (DRC-2, 5', concentration 5): 15% | % inhibition Apo pol 5' (DRC-2, 5', concentration 10): 23% | % inhibition Apo pol 5' (DRC-2, 5', concentration 20): 40% | % inhibition Apo pol 5' (DRC-2, 5', concentration 40): 46% | % inhibition Apo pol 5' (DRC-2, 5', concentration 80): 37% | % inhibition Apol 40' (DRC-2, 40', concentration 2.5): 8% | % inhibition Apol 40' (DRC-2, 40', concentration 5): 13% | % inhibition Apol 40' (DRC-2, 40', concentration 10): 21% | % inhibition Apol 40' (DRC-2, 40', concentration 20): 47% | % inhibition Apol 40' (DRC-2, 40', concentration 40): 67% | % inhibition Apol 40' (DRC-2, 40', concentration 80): 64% | % inhibition ApPOL 90' (DRC-2, 90', concentration 2.5): 5.53% | % inhibition ApPOL 90' (DRC-2, 90', concentration 5): 9% | % inhibition ApPOL 90' (DRC-2, 90', concentration 10): 17% | % inhibition ApPOL 90' (DRC-2, 90', concentration 20): 42% | % inhibition ApPOL 90' (DRC-2, 90', concentration 40): 68% | % inhibition ApPOL 90' (DRC-2, 90', concentration 80): 67% | % inhibition apPOL 180' (DRC-2, 180', concentration 2.5): -4.26% | % inhibition apPOL 180' (DRC-2, 180', concentration 5): -1.74% | % inhibition apPOL 180' (DRC-2, 180', concentration 10): 4.49% | % inhibition apPOL 180' (DRC-2, 180', concentration 20): 26% | % inhibition apPOL 180' (DRC-2, 180', concentration 40): 65% | % inhibition apPOL 180' (DRC-2, 180', concentration 80): 72% | DNA Pol [3]: 32 | DNA Pol [4]: 32

Oc1cccc2ccc(/C=C/c3ccc4c(c3)OCO4)nc12 [KU0025984]
% inhibition Apo pol 10' (DRC-1, concentration 2.5): -0.2183% | % inhibition Apo pol 10' (DRC-1, concentration 5): 11.208% | % inhibition Apo pol 10' (DRC-1, concentration 10): 38.8453% | % inhibition Apo pol 10' (DRC-1, concentration 20): 79.6836% | % inhibition Apo pol 10' (DRC-1, concentration 40): 89.9069% | % inhibition Apo pol 10' (DRC-1, concentration 80): 93.1389% | % inhibition Apol 90' (DRC-1, 90', concentration 2.5): -7.534% | % inhibition Apol 90' (DRC-1, 90', concentration 5): 4.814% | % inhibition Apol 90' (DRC-1, 90', concentration 10): 24.6628% | % inhibition Apol 90' (DRC-1, 90', concentration 20): 70.7764% | % inhibition Apol 90' (DRC-1, 90', concentration 40): 83.7672% | % inhibition Apol 90' (DRC-1, 90', concentration 80): 87.8493% | % inhibition apPOL 180' (DRC-1, 180', concentration 2.5): -11.2426% | % inhibition apPOL 180' (DRC-1, 180', concentration 5): -1.027% | % inhibition apPOL 180' (DRC-1, 180', concentration 10): 13.0398% | % inhibition apPOL 180' (DRC-1, 180', concentration 20): 59.792% | % inhibition apPOL 180' (DRC-1, 180', concentration 40): 76.8882% | % inhibition apPOL 180' (DRC-1, 180', concentration 80): 82.4453% | % inhibition Apo pol 5' [1]: 14% | % inhibition Apol 40' [2]: 14% | % inhibition ApPOL 90' (DRC-2, 90', concentration 20 (unit not given)): 70% | % inhibition apPOL 180' (DRC-2, 180', concentration 5 (unit not given)): 12% | % inhibition apPOL 180' (DRC-2, 180', concentration 40 (unit not given)): 70% | % inhibition Apo pol 5' (DRC-2, 5', concentration 2.5): 14% | % inhibition Apo pol 5' (DRC-2, 5', concentration 5): 21% | % inhibition Apo pol 5' (DRC-2, 5', concentration 10): 38% | % inhibition Apo pol 5' (DRC-2, 5', concentration 20): 50% | % inhibition Apo pol 5' (DRC-2, 5', concentration 40): 52% | % inhibition Apo pol 5' (DRC-2, 5', concentration 80): 53% | % inhibition Apol 40' (DRC-2, 40', concentration 2.5): 14% | % inhibition Apol 40' (DRC-2, 40', concentration 5): 25% | % inhibition Apol 40' (DRC-2, 40', concentration 10): 47% | % inhibition Apol 40' (DRC-2, 40', concentration 20): 69% | % inhibition Apol 40' (DRC-2, 40', concentration 40): 71% | % inhibition Apol 40' (DRC-2, 40', concentration 80): 74% | % inhibition ApPOL 90' (DRC-2, 90', concentration 2.5): 12% | % inhibition ApPOL 90' (DRC-2, 90', concentration 2.5 (unit not given)): 12% | % inhibition ApPOL 90' (DRC-2, 90', concentration 5): 24% | % inhibition ApPOL 90' (DRC-2, 90', concentration 10): 45% | % inhibition ApPOL 90' (DRC-2, 90', concentration 20): 70% | % inhibition ApPOL 90' (DRC-2, 90', concentration 40): 72% | % inhibition ApPOL 90' (DRC-2, 90', concentration 80): 77% | % inhibition apPOL 180' (DRC-2, 180', concentration 2.5): -0.452% | % inhibition apPOL 180' (DRC-2, 180', concentration 5): 12% | % inhibition apPOL 180' (DRC-2, 180', concentration 10): 35% | % inhibition apPOL 180' (DRC-2, 180', concentration 20): 66% | % inhibition apPOL 180' (DRC-2, 180', concentration 40): 70% | % inhibition apPOL 180' (DRC-2, 180', concentration 80): 78% | DNA Pol [3]: 45 | DNA Pol [4]: 45
